What was measured:
Assay type in all cases: in vivo
rapeseed = test: Test Example 3: soil treatment, effect on crop; g: rapeseed; conditions: soil treatment, treatment dosage 80 g/ha
Text: (§1) Weedkilling Efficacy Test Through Soil Treatment
(§2) Sterilized diluvial soil was introduced into 21 cm long, 13 cm wide, 7 cm deep plastic boxes, and seeds of crabgrass, green foxtail, barnyard grass, wild oat, black-grass, Italian ryegrass, common wind-grass, Indian mallow, redroot pigweed, fig-leafed goosefoot, chickweed, catchweed, birds-eye speedwell, corn, soybean, rice, wheat, beet and rapeseed were each spot-sown, and covered with about 1.5 cm of soil. Next, emulsions of compounds of the present invention prepared according to compounding example 2 were diluted with water to give the specified dosages, and applied uniformly onto the soil surface with a small sprayer. The plants were grown by placing the plastic boxes in a greenhouse at 25 to 30° C., and 3 weeks after the pesticide treatment the effect on each type of plant was investigated on the basis of the assessment criteria of test example 1.
(§3) A: barnyard grass, B: bulrush, C: oval-leafed pondweed, D: crabgrass, E: green foxtail, F: barnyard grass, G: wild oat, H: black-grass, I: Italian ryegrass, J: common wind-grass, K: Indian mallow, L: redroot pigweed, M: fig-leafed goosefoot, N: chickweed, O: catchweed, p: birds-eye speedwell, a: transplanted rice, b: directly sown rice, c: corn, d: soybean, e: wheat, f: beet, g: rapeseed
(§4) Further, pesticide dosage (g/ha) indicates the concentration regulated such that treatment was with only the stated number of grams (g), when calculated per hectare (ha).

Italian ryegrass [1] = test: Test Example 3: weedkilling efficacy through soil treatment; I: Italian ryegrass
Procedure, shortened: (§5)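 Crop and weed responses were judged three weeks after a uniform surface spray of the water-diluted emulsion at the given g/ha rate. Seeds sat beneath about 1.5 cm of sterilized diluvial soil, and boxes stood in a greenhouse at 25 to 30° C.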

black-grass [2] = test: Test Example 3: weedkilling efficacy through soil treatment; H: black-grass
Procedure, shortened: as §5

common wind-grass = test: Test Example 3: weedkilling efficacy through soil treatment; J: common wind-grass; conditions: soil treatment, treatment dosage 80 g/ha
Text: as §1, §2, §3, §4

wheat [3] = test: Test Example 3: soil treatment, effect on crop; e: wheat
Procedure, shortened: as §5

green foxtail [4] = test: Test Example 3: weedkilling efficacy through soil treatment; E: green foxtail; conditions: treatment dosage 315 g/ha
Procedure, shortened: as §5

corn [5] = test: Test Example 4: foliar treatment, effect on crop; c: corn; conditions: treatment dosage 315 g/ha
Procedure: (§6) Testing of Weedkilling Efficacy by Foliar Treatment
(§7) Sterilized diluvial soil was introduced into 21 cm long, 13 cm wide, 7 cm deep plastic boxes, and seeds of crabgrass, green foxtail, barnyard grass, wild oat, black-grass, Italian ryegrass, common wind-grass, Indian mallow, redroot pigweed, fig-leafed goosefoot, chickweed, catchweed, birds-eye speedwell, corn, soybean, rice, wheat, beet and rapeseed were each spot-sown, and covered with about 1.5 cm of soil, then the plants were grown in a greenhouse at 25 to 30° C.
(§8) After they had grown for 14 days, emulsions of compounds of the present invention prepared according to compounding example 2 were diluted with water to give the specified dosages, and applied uniformly onto the stem and leaf parts with a small sprayer. 3 weeks after the pesticide treatment the effect on each type of plant was investigated on the basis of the assessment criteria of test example 1.
as §3, §4

corn [6] = test: Test Example 3: soil treatment, effect on crop; c: corn; conditions: treatment dosage 315 g/ha
Procedure, shortened: as §5

wheat [7] = test: Test Example 4: foliar treatment, effect on crop; e: wheat; conditions: treatment dosage 315 g/ha
Procedure: as §6, §7, §8, §3, §4

crabgrass [8] = test: Test Example 3: weedkilling efficacy through soil treatment; D: crabgrass; conditions: treatment dosage 315 g/ha
Procedure, shortened: as §5

redroot pigweed [9] = test: Test Example 3: weedkilling efficacy through soil treatment; L: redroot pigweed; conditions: treatment dosage 315 g/ha
Procedure, shortened: as §5

barnyard grass [10] = test: Test Example 2: weedkilling efficacy, growth period weed treatment in the submerged state; A: barnyard grass; conditions: treatment dosage 252 g/ha
Procedure, shortened: (§9)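 Weeds treated at the 1-2 leaf stage by application of diluted emulsion onto floodwater (4 cm depth, alluvial soil) at specified g/ha. Grown in greenhouse at 25 to 30° C; herbicidal effect rated three weeks after treatment.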

soybean [11] = test: Test Example 3: soil treatment, effect on crop; d: soybean; conditions: treatment dosage 315 g/ha
Procedure, shortened: as §5

redroot pigweed [12] = test: Test Example 4: weedkilling efficacy by foliar treatment; L: redroot pigweed; conditions: treatment dosage 315 g/ha
Procedure: as §6, §7, §8, §3, §4

bulrush [13] = test: Test Example 2: weedkilling efficacy, growth period weed treatment in the submerged state; B: bulrush; conditions: treatment dosage 252 g/ha
Procedure, shortened: as §9

green foxtail [14] = test: Test Example 4: weedkilling efficacy by foliar treatment; E: green foxtail; conditions: treatment dosage 315 g/ha
Procedure: as §6, §7, §8, §3, §4

oval-leafed pondweed [15] = test: Test Example 1: weedkilling efficacy, preemergent weed treatment in the submerged state; C: oval-leafed pondweed; conditions: treatment dosage 252 g/ha
Procedure, shortened: (§10)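 Pots of alluvial soil were flooded to a 4 cm depth. Mixed weed seeds were sown and 2.5 leaf-stage rice seedlings transplanted. On sowing day, water-diluted emulsion was applied to the water surface (dose in g/ha). After 3 weeks at 25–30 °C, effects were rated.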

bulrush [16] = test: Test Example 1: weedkilling efficacy, preemergent weed treatment in the submerged state; B: bulrush; conditions: treatment dosage 252 g/ha
Procedure, shortened: as §10

directly sown rice [17] = test: Test Example 4: foliar treatment, effect on crop; b: directly sown rice; conditions: treatment dosage 315 g/ha
Procedure: as §6, §7, §8, §3, §4

birds-eye speedwell [18] = test: Test Example 4: weedkilling efficacy by foliar treatment; p: birds-eye speedwell; conditions: treatment dosage 315 g/ha
Procedure: as §6, §7, §8, §3, §4

chickweed [19] = test: Test Example 3: weedkilling efficacy through soil treatment; N: chickweed; conditions: treatment dosage 315 g/ha
Procedure, shortened: as §5

barnyard grass [20] = test: Test Example 1: weedkilling efficacy, preemergent weed treatment in the submerged state; A: barnyard grass; conditions: treatment dosage 252 g/ha
Procedure, shortened: as §10

beet [21] = test: Test Example 4: foliar treatment, effect on crop; f: beet; conditions: treatment dosage 315 g/ha
Procedure: as §6, §7, §8, §3, §4

chickweed [22] = test: Test Example 4: weedkilling efficacy by foliar treatment; N: chickweed; conditions: treatment dosage 315 g/ha
Procedure: as §6, §7, §8, §3, §4

catchweed = test: Test Example 4: weedkilling efficacy by foliar treatment; O: catchweed; conditions: treatment dosage 315 g/ha
Procedure: as §6, §7, §8, §3, §4

Indian mallow [23] = test: Test Example 4: weedkilling efficacy by foliar treatment; K: Indian mallow; conditions: treatment dosage 315 g/ha
Procedure: as §6, §7, §8, §3, §4

directly sown rice [24] = test: Test Example 3: soil treatment, effect on crop; b: directly sown rice; conditions: treatment dosage 315 g/ha
Procedure, shortened: as §5

oval-leafed pondweed [25] = test: Test Example 2: weedkilling efficacy, growth period weed treatment in the submerged state; C: oval-leafed pondweed; conditions: treatment dosage 252 g/ha
Procedure, shortened: as §9

transplanted rice = test: Test Example 1: preemergent weed treatment in the submerged state, effect on crop; a: transplanted rice; conditions: treatment dosage 252 g/ha
Procedure, shortened: as §10

Indian mallow [26] = test: Test Example 3: weedkilling efficacy through soil treatment; K: Indian mallow; conditions: treatment dosage 315 g/ha
Procedure, shortened: as §5

fig-leafed goosefoot = test: Test Example 4: weedkilling efficacy by foliar treatment; M: fig-leafed goosefoot; conditions: treatment dosage 315 g/ha
Procedure: as §6, §7, §8, §3, §4

Italian ryegrass [27] = test: Test Example 4: weedkilling efficacy by foliar treatment; I: Italian ryegrass; conditions: treatment dosage 315 g/ha
Procedure: as §6, §7, §8, §3, §4

soybean [28] = test: Test Example 4: foliar treatment, effect on crop; d: soybean; conditions: treatment dosage 315 g/ha
Procedure: as §6, §7, §8, §3, §4

birds-eye speedwell [29] = test: Test Example 3: weedkilling efficacy through soil treatment; p: birds-eye speedwell; conditions: treatment dosage 315 g/ha
Procedure, shortened: as §5

crabgrass [30] = test: Test Example 4: weedkilling efficacy by foliar treatment; D: crabgrass; conditions: treatment dosage 315 g/ha
Procedure: as §6, §7, §8, §3, §4

beet [31] = test: Test Example 3: soil treatment, effect on crop; f: beet; conditions: treatment dosage 315 g/ha
Procedure, shortened: as §5

black-grass [32] = test: Test Example 4: weedkilling efficacy by foliar treatment; H: black-grass; conditions: treatment dosage 315 g/ha
Procedure: as §6, §7, §8, §3, §4

[33] = soil treatment, treatment dosage 80 g/ha

For `CC(C)(C(=O)Nc1cc(C(F)F)cc(Cl)n1)N1COCN(c2ccccc2)C1=O` [A-2-27], the “g: rapeseed, effect on crop grade” value (rapeseed) was 2 (weed kill ratio 20% or more, less than 40%), the “I: Italian ryegrass, weedkilling efficacy grade” value (Italian ryegrass [1]; [33]) was 5 (weed kill ratio 90% or more, (practically complete withering)) and the “H: black-grass, weedkilling efficacy grade” value (black-grass [2]; [33]) was 5 (weed kill ratio 90% or more, (practically complete withering)). For the same compound, the “J: common wind-grass, weedkilling efficacy grade” value (common wind-grass) was 5 (weed kill ratio 90% or more, (practically complete withering)) and the “e: wheat, effect on crop grade” value (wheat [3]; [33]) was 1 (weed kill ratio 5% or more, less than 20%).
In the case of `COc1nsc(NC(=O)C(C)(C)N2COC(C)=C(c3ccccc3)C2=O)n1` [B-1-15], the “E (green foxtail) weedkilling efficacy grade” value (green foxtail [4]) is reported as 5 (weed kill ratio 90% or more, (practically complete withering)), the “c (corn) effect on crop grade” value (corn [5]) is reported as 4 (weed kill ratio 70% or more, less than 90%) and the “c (corn) effect on crop grade” value (corn [6]) is reported as 0 (weed kill ratio 5% or less (practically no effect)). The “e (wheat) effect on crop grade” value (wheat [7]) was 3 (weed kill ratio 40% or more, less than 70%), the “D (crabgrass) weedkilling efficacy grade” value (crabgrass [8]) was 5 (weed kill ratio 90% or more, (practically complete withering)) and the “L (redroot pigweed) weedkilling efficacy grade” value (redroot pigweed [9]) was 5 (weed kill ratio 90% or more, (practically complete withering)). For the same compound, the “A (barnyard grass) weedkilling efficacy grade” value (barnyard grass [10]) was 4 (weed kill ratio 70% or more, less than 90%), the “d (soybean) effect on crop grade” value (soybean [11]) was 0 (weed kill ratio 5% or less (practically no effect)) and the “L (redroot pigweed) weedkilling efficacy grade” value (redroot pigweed [12]) was 5 (weed kill ratio 90% or more, (practically complete withering)). The “B (bulrush) weedkilling efficacy grade” value (bulrush [13]) was 5 (weed kill ratio 90% or more, (practically complete withering)), the “E (green foxtail) weedkilling efficacy grade” value (green foxtail [14]) was 5 (weed kill ratio 90% or more, (practically complete withering)) and the “C (oval-leafed pondweed) weedkilling efficacy grade” value (oval-leafed pondweed [15]) was 5 (weed kill ratio 90% or more, (practically complete withering)). The “B (bulrush) weedkilling efficacy grade” value (bulrush [16]) was 5 (weed kill ratio 90% or more, (practically complete withering)), the “b (directly sown rice) effect on crop grade” value (directly sown rice [17]) was 4 (weed kill ratio 70% or more, less than 90%) and the “I (Italian ryegrass) weedkilling efficacy grade” value (Italian ryegrass [1]; treatment dosage 315 g/ha) was 5 (weed kill ratio 90% or more, (practically complete withering)). For the same compound, the “H (black-grass) weedkilling efficacy grade” value (black-grass [2]; treatment dosage 315 g/ha) was 5 (weed kill ratio 90% or more, (practically complete withering)), the “P (birds-eye speedwell) weedkilling efficacy grade” value (birds-eye speedwell [18]) was 4 (weed kill ratio 70% or more, less than 90%) and the “N (chickweed) weedkilling efficacy grade” value (chickweed [19]) was 5 (weed kill ratio 90% or more, (practically complete withering)). For the same compound, the “e (wheat) effect on crop grade” value (wheat [3]; treatment dosage 315 g/ha) was 4 (weed kill ratio 70% or more, less than 90%), the “A (barnyard grass) weedkilling efficacy grade” value (barnyard grass [20]) was 5 (weed kill ratio 90% or more, (practically complete withering)) and the “f (beet) effect on crop grade” value (beet [21]) was 4 (weed kill ratio 70% or more, less than 90%). The “N (chickweed) weedkilling efficacy grade” value (chickweed [22]) was 4 (weed kill ratio 70% or more, less than 90%), the “O (catchweed) weedkilling efficacy grade” value (catchweed) was 4 (weed kill ratio 70% or more, less than 90%) and the “K (Indian mallow) weedkilling efficacy grade” value (Indian mallow [23]) was 5 (weed kill ratio 90% or more, (practically complete withering)). For the same compound, the “b (directly sown rice) effect on crop grade” value (directly sown rice [24]) was 5 (weed kill ratio 90% or more, (practically complete withering)), the “C (oval-leafed pondweed) weedkilling efficacy grade” value (oval-leafed pondweed [25]) was 5 (weed kill ratio 90% or more, (practically complete withering)) and the “a (transplanted rice) effect on crop grade” value (transplanted rice) was 0 (weed kill ratio 5% or less (practically no effect)). For the same compound, the “K (Indian mallow) weedkilling efficacy grade” value (Indian mallow [26]) was 4 (weed kill ratio 70% or more, less than 90%), the “M (fig-leafed goosefoot) weedkilling efficacy grade” value (fig-leafed goosefoot) was 3 (weed kill ratio 40% or more, less than 70%) and the “I (Italian ryegrass) weedkilling efficacy grade” value (Italian ryegrass [27]) was 4 (weed kill ratio 70% or more, less than 90%). For the same compound, the “d (soybean) effect on crop grade” value (soybean [28]) was 4 (weed kill ratio 70% or more, less than 90%), the “P (birds-eye speedwell) weedkilling efficacy grade” value (birds-eye speedwell [29]) was 5 (weed kill ratio 90% or more, (practically complete withering)) and the “D (crabgrass) weedkilling efficacy grade” value (crabgrass [30]) was 5 (weed kill ratio 90% or more, (practically complete withering)). The “f (beet) effect on crop grade” value (beet [31]) was 4 (weed kill ratio 70% or more, less than 90%) and the “H (black-grass) weedkilling efficacy grade” value (black-grass [32]) was 5 (weed kill ratio 90% or more, (practically complete withering)).

From patent US9738634B2, “Heterocyclic amide compound and herbicide” (SYNGENTA PARTICIPATIONS AG, priority 2013, dated 2017)
